Experimental findings from PubChem BioAssay AID328 (DTP/NCI, 2004) are described below.

Molecules are shown by their SMILES. Values joined by “and” are separate entries in the source; they are usually repeats but may differ in a detail not shown here. Identical values can stand only once. Inconclusive results and toxic doses are left out.

The test system of this test is BDF1 mice, P388 leukemia ip, median survival T/C. In words: NCI In Vivo Anticancer Drug Screen. Data for tumor model P388 Leukemia (intraperitoneal) in B6D2F1 (BDF1) mice. As to conditions: endpoint: median survival time, higher = longer survival. Put shortly:
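Steps: implant the tumour, treat one group with compound and another with vehicle, record survival, then divide treated by control.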

Setting [1] is: dose: 0.78 mg/kg/injection, schedule: Q01DX009 (ip), vehicle: saline with Tween-80.
Where [2] appears, read: dose: 1.56 mg/kg/injection, schedule: Q01DX009 (ip), vehicle: saline with Tween-80.
Setting [3] is: dose: 100.0 mg/kg/injection, schedule: Q01DX009 (ip), vehicle: Klucel (hydroxypropylcellulose) (HPC).
Setting [4] is: dose: 200.0 mg/kg/injection, schedule: Q01DX009 (ip), vehicle: Klucel (hydroxypropylcellulose) (HPC).
[5] abbreviates: dose: 25.0 mg/kg/injection, schedule: Q01DX009 (ip), vehicle: saline with Tween-80.
Setting [6] is: dose: 50.0 mg/kg/injection, schedule: Q01DX009 (ip), vehicle: saline with Tween-80.
[7] abbreviates: dose: 100.0 mg/kg/injection, schedule: Q01DX009 (ip), vehicle: saline with Tween-80.
Setting [8] is: dose: 50.0 mg/kg/injection, schedule: Q01DX009 (ip), vehicle: saline.
The mark [9] stands for this setting: dose: 100.0 mg/kg/injection, schedule: Q01DX009 (ip), vehicle: saline.
The mark [10] stands for this setting: dose: 100.0 mg/kg/injection, schedule: Q04DX003 (ip), vehicle: saline.
The mark [11] stands for this setting: dose: 200.0 mg/kg/injection, schedule: Q04DX003 (ip), vehicle: saline.
The mark [12] stands for this setting: dose: 100.0 mg/kg/injection, schedule: Q04DX003 (ip), vehicle: Klucel (hydroxypropylcellulose) (HPC).
The mark [13] stands for this setting: dose: 200.0 mg/kg/injection, schedule: Q04DX003 (ip), vehicle: Klucel (hydroxypropylcellulose) (HPC).
Setting [14] is: dose: 200.0 mg/kg/injection, schedule: Q01DX009 (ip), vehicle: saline.

Regarding `COc1cc(OC)cc(-c2n[se]c(-c3cc(OC)cc(OC)c3)n2)c1`, the T/C is 114 % of control (dose: 0.19 mg/kg/injection, schedule: Q01DX009 (ip), vehicle: saline with Tween-80); 98 % of control (dose: 0.39 mg/kg/injection, schedule: Q01DX009 (ip), vehicle: saline with Tween-80); 104 % of control under setting [1]; 107 % of control under setting [2].
Regarding `c1ccc(C2C3(c4ccccc4)C4(c5ccccc5)OC(c5ccccc5)(c5ccccc54)C23c2ccccc2)cc1` (centres undefined), the T/C reads like this: (dose: 50.0 mg/kg/injection, schedule: Q01DX009 (ip), vehicle: Klucel (hydroxypropylcellulose) (HPC)) 91 % of control; under setting [3], 103 % of control; under setting [4], 92 % of control.
Regarding `CS(=O)(=O)Nc1ccc(Nc2c3ccccc3nc3cc([N+](=O)[O-])ccc23)cc1`, the T/C by setting is: (dose: 0.09 mg/kg/injection, schedule: Q04DX003 (ip), vehicle: saline with Tween-80) 91 % of control; (dose: 0.18 mg/kg/injection, schedule: Q04DX003 (ip), vehicle: saline with Tween-80) 100 % of control; (dose: 0.75 mg/kg/injection, schedule: Q01DX009 (ip), vehicle: saline with Tween-80) 169 % of control; (dose: 1.5 mg/kg/injection, schedule: Q01DX009 (ip), vehicle: saline with Tween-80) 185 % of control; (dose: 1.5 mg/kg/injection, schedule: Q04DX003 (ip), vehicle: saline with Tween-80) 150 % of control; (dose: 3.0 mg/kg/injection, schedule: Q01DX009 (ip), vehicle: saline with Tween-80) 235 % of control. Moreover, the T/C by setting is: (dose: 3.0 mg/kg/injection, schedule: Q04DX003 (ip), vehicle: saline with Tween-80) 162 % of control; (dose: 6.0 mg/kg/injection, schedule: Q04DX003 (ip), vehicle: saline with Tween-80) 252 % of control and 183 % of control and 200 % of control; (dose: 9.0 mg/kg/injection, schedule: Q04DX003 (ip), vehicle: saline with Tween-80) 285 % of control and 204 % of control; (dose: 14.0 mg/kg/injection, schedule: Q04DX003 (ip), vehicle: saline with Tween-80) 250 % of control and 285 % of control; (dose: 21.0 mg/kg/injection, schedule: Q04DX003 (ip), vehicle: saline with Tween-80) 250 % of control and 272 % of control and 157 % of control.
With `CN[C@H]1CC[C@]23C[C@]24CC[C@]2(C)[C@@H]([C@H](C)N(C)C)CC[C@@]2(C)[C@@H]4CC[C@H]3C1(C)C`, the T/C (dose: 2.6 mg/kg/injection, schedule: Q01DX010 (ip), vehicle: saline) was 90 % of control; the T/C (dose: 4.0 mg/kg/injection, schedule: Q01DX010 (ip), vehicle: saline) is 100 % of control; the T/C (dose: 6.6 mg/kg/injection, schedule: Q01DX010 (ip), vehicle: saline) is 118 % of control; the T/C (dose: 8.8 mg/kg/injection, schedule: Q01DX010 (ip), vehicle: carboxymethylcellulose (CMC)) was 100 % of control; the T/C (dose: 10.0 mg/kg/injection, schedule: Q01DX010 (ip), vehicle: saline) was 100 % of control; the T/C (dose: 13.3 mg/kg/injection, schedule: Q01DX010 (ip), vehicle: carboxymethylcellulose (CMC)) was 105 % of control. Further, the T/C was 113 % of control (dose: 16.0 mg/kg/injection, schedule: Q01DX010 (ip), vehicle: saline); 115 % of control (dose: 20.0 mg/kg/injection, schedule: Q01DX010 (ip), vehicle: carboxymethylcellulose (CMC)); 90 % of control (dose: 26.0 mg/kg/injection, schedule: Q01DX010 (ip), vehicle: saline); 94 % of control (dose: 30.0 mg/kg/injection, schedule: Q01DX010 (ip), vehicle: carboxymethylcellulose (CMC)); 94 % of control (dose: 45.0 mg/kg/injection, schedule: Q01DX010 (ip), vehicle: carboxymethylcellulose (CMC)).
In the case of `CC(=O)CC(=O)Nc1ccccn1`, the T/C was 95 % of control under setting [5]; 92 % of control under setting [6]; 98 % of control under setting [7]; 104 % of control (dose: 200.0 mg/kg/injection, schedule: Q01DX009 (ip), vehicle: saline with Tween-80).
For the compound `CSC1C(=O)Nc2cccc(C#N)c21` (centres undefined), the T/C is 102 % of control (dose: 50.0 mg/kg/injection, schedule: Q04DX002 (ip), vehicle: saline with Tween-80); 98 % of control (dose: 100.0 mg/kg/injection, schedule: Q04DX002 (ip), vehicle: saline with Tween-80); 102 % of control (dose: 200.0 mg/kg/injection, schedule: Q04DX002 (ip), vehicle: saline with Tween-80).
Take `O=N/N=c1/sc2ccccc2n1-c1ccccc1`: the T/C by setting is: (dose: 25.0 mg/kg/injection, schedule: Q01DX001 (ip), vehicle: saline sonified) 100 % of control; (dose: 50.0 mg/kg/injection, schedule: Q01DX001 (ip), vehicle: saline sonified) 104 % of control; (dose: 100.0 mg/kg/injection, schedule: Q01DX001 (ip), vehicle: saline sonified) 100 % of control.
Turning to `Cc1cc(C(=O)N/N=C/c2ccccc2O)c2cc(Br)ccc2n1`, the T/C reads like this: under setting [1], 95 % of control; under setting [2], 95 % of control; (dose: 3.12 mg/kg/injection, schedule: Q01DX009 (ip), vehicle: saline with Tween-80) 97 % of control.
As for `CCN=NNc1ccc(C)cc1`, the T/C (dose: 8.25 mg/kg/injection, schedule: Q01DX009 (ip), vehicle: saline with Tween-80) was 90 % of control; the T/C (dose: 16.5 mg/kg/injection, schedule: Q01DX009 (ip), vehicle: saline with Tween-80) is 100 % of control; the T/C (dose: 66.0 mg/kg/injection, schedule: Q01DX009 (ip), vehicle: saline with Tween-80) is 100 % of control; the T/C under setting [7] is 108 % of control.
Turning to `CC(O)C1CCCNC1` (centres undefined), the T/C reads like this: under setting [8], 110 % of control; under setting [9], 100 % of control; under setting [10], 108 % of control; under setting [11], 104 % of control.
`CC(=O)Nc1ccc([N+](=O)[O-])c(NC(C)=O)n1`: the T/C is, setting by setting: (dose: 50.0 mg/kg/injection, schedule: Q04DX003 (ip), vehicle: Klucel (hydroxypropylcellulose) (HPC)) 110 % of control; under setting [12], 105 % of control; under setting [13], 100 % of control.
As to `CC(C)=CCc1cc(O)ccc1O`, the T/C was 108 % of control (dose: 6.25 mg/kg/injection, schedule: Q01DX009 (ip), vehicle: saline with Tween-80); 112 % of control under setting [5]; 101 % of control under setting [6].
For `c1cnc2[nH]cnc2n1`, the T/C under setting [9] was 95 % of control; the T/C under setting [10] is 100 % of control; the T/C under setting [14] is 95 % of control; the T/C under setting [11] is 100 % of control; the T/C (dose: 400.0 mg/kg/injection, schedule: Q04DX003 (ip), vehicle: saline) was 90 % of control.
`C#CCOCC1CN(C)C(=O)O1` (centres undefined): the T/C (dose: 25.0 mg/kg/injection, schedule: Q01DX009 (ip), vehicle: saline) was 104 % of control; the T/C under setting [8] was 100 % of control; the T/C (dose: 50.0 mg/kg/injection, schedule: Q04DX003 (ip), vehicle: saline) is 91 % of control; the T/C under setting [9] was 100 % of control; the T/C under setting [14] was 100 % of control; the T/C under setting [11] was 100 % of control.
With `CC1(C)CC(=O)C2OC2(C)C1` (centres undefined), the T/C was 100 % of control under setting [3]; 104 % of control under setting [12]; 90 % of control under setting [4]; 95 % of control under setting [13]; 109 % of control (dose: 400.0 mg/kg/injection, schedule: Q01DX009 (ip), vehicle: Klucel (hydroxypropylcellulose) (HPC)); 108 % of control (dose: 400.0 mg/kg/injection, schedule: Q04DX003 (ip), vehicle: Klucel (hydroxypropylcellulose) (HPC)).
On to `COc1ccc(-c2c(C)c(C)nc(Cl)c2C#N)c(OCc2ccccc2)c1OC`, for which the T/C (dose: 0.1 mg/kg/injection, schedule: Q01DX009 (ip), vehicle: Klucel (hydroxypropylcellulose) (HPC)) was 95 % of control.
